Data published in patent US20240148809A1, “CANNABIS PREVENTS NK IN[…] CANCER AND INCREASES NK FUNCTION” (The Regents of the University of California, priority 2020, published 2024).

How the values were obtained:
PBMCs (IFN-γ) [1] = assay: ELISPOT for IFN-γ spots in PBMCs of breast cancer patient P38/P77 treated with CBD; format: in vivo, human; conditions: in words
Description: FIG. 10A-FIG. 10B show results of an enzyme-linked immunospot (ELISPOT) assay that was conducted to determine the numbers of IFN-γ spots representing the number of cells expressing IFN-γ. Treated (IL2, IL2+antiCD16, IL2+antiCD3/28) and untreated PMBC cells of a breast cancer patient P38 (who was treated with CBD) compared to two healthy control subjects, H43 and H44 (FIG. 10A). Treated (IL2, IL2+antiCD16, IL2+antiCD3/28) and untreated PMBC cells of a breast cancer patient P77 VB (who was treated with CBD) compared to a healthy control subject, H74 (FIG. 10B).
80 μl of anti-human IFN-γ capture antibody was added to each well of a 96-well high-protein-binding PVDF filter plate and incubated overnight at 4° C. The plate was washed with […] of PBS once before adding samples into the plate. 50,000 cells in 200 μl of RPMI were added into each well and incubate at 37° C., 5% CO2 overnight. After incubation, the plate was washed twice with 200 μl PBS followed by 0.05% 200 μl Tween-PBS twice. […] of anti-human IFN-γ detection antibody was added into each well and incubated at room temperature for 2 hours and the plate was washed three times with 200 μI/well of 0.05% Tween-PBS. 80 μI/well of tertiary solution which was made from 1:1000 diluted Strep-AP was added in the plate and incubated for 30 minutes. […]

[2] = system: Oral Squamous Carcinoma Cells (OSCCs); assay: Cell death assay in OSCCs (loss of forward scatter and propidium iodide staining, flow cytometry); format: cell-based, human; conditions: for % PI: Percent cell death induced in total population of tumor cells, as visualized by PI / % decrease in FS: Percent of cells that lost FS in total population of tumor cells: OSCC, overnight
Description: (§1) Oral Squamous Carcinoma Cells (OSCCs) and stem-like Oral Squamous Carcinoma Stem Cells (OSCSCs) were isolated from tumors of oral cancer patients at UCLA, and cultured in RPMI 1640 supplemented with 10% FBS (Gemini Bio-Products, CA, USA), 1.4% antibiotic antimycotic, 1% sodium pyruvate, 1.4% non-essential amino acids, 1% L-glutamine, 0.2% gentamicin (Gemini Bio-Products, CA, USA), and 0.15% sodium bicarbonate (Fisher Scientific, PA, USA).
(§2) OSCCs and OSCSCs were treated with different concentrations of Win55,2122-2 and cis-diamminedichloridoplatinum (II) (CDDP) as shown in FIGS. 1A-1B, FIG. 2 and Tables 1 and 2, and cultured overnight at 37 C in 5% CO2.
(§3) After an overnight incubation the cells were washed twice and stained with Propidium iodide at a concentration of […], as described by Jewett, A., et al., J Immunol, 1997. 159(10): p. 4815-22; Jewett, A. and B. Bonavida, J Clin Immunol, 1995. 15(1): p. 35-44; and Jewett, A. and B. Bonavida, J Immunol, 1996. 156(3): p. 907-15, each of which is incorporated herein by reference in its entirety.
(§4) Flow cytometric analysis was performed using Attune flow cytometer. Briefly, cells were analyzed based on Forward angle light scatter (FS) and Side scatter (SS), and the proportions of cells that had lost FS and became small were determined in total populations of tumor cells. Untreated and DMSO treated tumors were used as controls. In addition, the proportions of cells that were stained with PI were also determined.
OSCCs are differentiated oral squamous carcinoma cells; OSCCs were treated with different concentrations of Win55,2122-2, as indicated in FIGS. 1A-1B and Table 1.

[3] = system: Oral Squamous Carcinoma Stem Cells (OSCSCs); assay: Cell death assay in OSCSCs (loss of forward scatter and propidium iodide staining, flow cytometry); format: cell-based, human; conditions: for % PI: propidium iodide staining / % of decrease in FS: Percent of cells that lost FS in total population of tumor cells: overnight
Description: as §1, §2, §3, §4
OSCSCs are stem like oral squamous carcinoma cells; OSCSCs were treated with different concentrations of Win55,2122-2, as indicated in FIG. 2 and Table 2.

PBMCs (IFN-γ) [4] = assay: IFN-γ ELISA of PBMC culture supernatants of treated hu-BLT mice; format: in vivo; conditions: IP for 27 days, in words
Description: (§5) PBMCs (FIG. 11A and FIG. 11B) and CD3+ T cells (FIG. 11C) were isolated from hu-BLT mice after treatment of WIN 55,212-2 (intraperitoneal (IP) injection every 2 days at 2 mg/Kg in DMSO+saline for 27 days before sacrifice) or IL-15 (IP injection of 5 μg per mice for 27 days). PBMCs were isolated from peripheral blood and treated with IL-2 (1000 u/ml) overnight before they were used in 51 Cr release assay. The Lytic units (LU) 30/10^6 cells were determined by plotting the % cytotoxicity obtained at different effector to target ratios, and using that curve to determine the inverse number of NK cells required to lyse 30% of OSCSCs×100. The numbers of LU were then adjusted based on the % of NK cells obtained by flow cytometric analysis (FIG. 11A). PBMCs and CD3+ T cells culture supernatants were collected and IFN-γ secretions were determined using ELISA (FIG. 11B and FIG. 11C). CD3 T cells were isolated from splenocytes by negative selection of CD3+ T cells using an isolation kit (Stem cell technologies).

CD3+ T cells (IFN-γ) = assay: IFN-γ ELISA of culture supernatants of CD3+ T cells from splenocytes of treated hu-BLT mice; format: in vivo; conditions: IP for 27 days, in words
Description: as §5

[5] = system: NK cells in PBMCs (cytotoxicity against OSCSCs); assay: 51Cr release assay with PBMCs of treated hu-BLT mice against OSCSCs; format: in vivo; conditions: IP for 27 days, PBMCs treated with IL-2 overnight, in words
Description: as §5

Compound: C=C(C)[C@@H]1CCC(C)=C[C@H]1c1c(O)cc(CCCCC)cc1O [CBD, Cannabidiol]
- PBMC expression of IFN-γ (ELISPOT) compared to healthy control (PBMCs (IFN-γ) [1]): Comparable

Compound: N.N.[Cl][Pt][Cl] [CDDP, cis-diamminedichloridoplatinum (II)]
- % PI: Percent cell death induced in total population of tumor cells, as visualized by PI ([2]; 30 μg/ml): 23.8%
- % decrease in FS: Percent of cells that lost FS in total population of tumor cells ([2]; 30 μg/ml): 51%
- % PI: Percent cell death induced in total population of tumor cells, as visualized by PI ([2]; 50 μg/ml): 18.9%
- % decrease in FS: Percent of cells that lost FS in total population of tumor cells ([2]; 50 μg/ml): 53%

Compound: CS(=O)(=O)O.Cc1c(C(=O)c2cccc3ccccc23)c2cccc3c2n1[C@H](CN1CCOCC1)CO3 [Win55,2122-2, (R)-(+)-[2,3-Dihydro-5-methyl-3-(4-morpholinylmethyl)pyrrolo[1,2,3-de]-1,4-benzoxazin-6-yl]-1-naphthalenylmethanone mesylate]
- % PI: propidium iodide staining ([3]; 5 μM): 11.5%
- % of decrease in FS: Percent of cells that lost FS in total population of tumor cells ([3]; 5 μM): 15%
- % PI: propidium iodide staining ([3]; 25 μM): 26.3%
- % of decrease in FS: Percent of cells that lost FS in total population of tumor cells ([3]; 25 μM): 24%
- % PI: propidium iodide staining ([3]; 50 μM): 21.7%
- % of decrease in FS: Percent of cells that lost FS in total population of tumor cells ([3]; 50 μM): 16%
- cell death by staining with PI ([3]; compared to untreated or DMSO treated tumors, in words): no or moderate levels of cell death
- change of FS ([3]; even at the higher concentrations, in words): did not change FS
- IFN-γ secretion in PBMC (PBMCs (IFN-γ) [4]): higher
- IFN-γ secretion in CD3+ T cells (CD3+ T cells (IFN-γ)): higher
- NK cell mediated cytotoxicity in PBMC [5]: higher
- % PI: Percent cell death induced in total population of tumor cells, as visualized by PI ([2]; 5 μM): 23.1%
- % decrease in FS: Percent of cells that lost FS in total population of tumor cells ([2]; 5 μM): 52%
- % PI: Percent cell death induced in total population of tumor cells, as visualized by PI ([2]; 25 μM): 32.9%
- % decrease in FS: Percent of cells that lost FS in total population of tumor cells ([2]; 25 μM): 75%
- % PI: Percent cell death induced in total population of tumor cells, as visualized by PI ([2]; 50 μM): 51.6%
- % decrease in FS: Percent of cells that lost FS in total population of tumor cells ([2]; 50 μM): 78%
- % PI: Percent cell death induced in total population of tumor cells, as visualized by PI ([2]; 100 μM): 51.6%
- % decrease in FS: Percent of cells that lost FS in total population of tumor cells ([2]; 100 μM): 77%
- induction of cell death in differentiated oral tumors ([2]; OSCCs, in words): potent inducer of cell death

Compound: IL-15: IL-15, IP injection of 5 μg per mice for 27 days in hu-BLT mice
- IFN-γ secretion in CD3+ T cells (CD3+ T cells (IFN-γ)): higher
- NK cell mediated cytotoxicity in PBMC [5]: higher
